Patent EP2801573A1, “Hydantoine derivatives as CD38 inhibitors” (SANOFI, priority 2013, dated 2014)
Counter-ions that a name gives are not always drawn.

biological target: T1, human recombinant CD38 enzyme (Homo sapiens, UniProt P28907); test: Human recombinant enzyme assay (fluorimetric CD38 enzyme assay, ε-NAD substrate); format: biochemical; conditions: recombinant CD38 100 ng/ml, ε-NAD 100 µM, pH = 6.0, 37°C, reaction time 30 min; read-out: IC50 (nM) ENAD
T1 construct: purchased R&D Systems H7006
T1 sequence (P28907 1-300): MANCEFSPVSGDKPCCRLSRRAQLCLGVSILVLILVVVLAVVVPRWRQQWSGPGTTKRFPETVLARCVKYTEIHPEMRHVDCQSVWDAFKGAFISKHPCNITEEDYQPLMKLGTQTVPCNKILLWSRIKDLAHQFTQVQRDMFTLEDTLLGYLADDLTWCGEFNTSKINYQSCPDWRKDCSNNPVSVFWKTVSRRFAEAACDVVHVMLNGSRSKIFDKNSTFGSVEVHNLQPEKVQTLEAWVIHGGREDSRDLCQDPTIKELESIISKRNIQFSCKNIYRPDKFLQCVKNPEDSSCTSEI
Method: Enzyme assay on human recombinant CD38 enzyme were performed in order to determine the in vitro potency of the newly synthesized compounds. IC50 values were determined for the test compounds and used to explore the structure-activity relationships (SAR).
N6-etheno-NAD (ε-NAD), a NAD analogue previously shown to be a convenient substrate of CD38 enzyme activity (Graeff et al. J. Biol. Chem. 269, pp 30260-30367, […]) was used to measure the activity of human recombinant CD38 and cell surface enzyme activity.
A fluorimetric CD38 enzyme assay was performed as described by Graeff et al. The reaction was started with 10 µl of N6-etheno-NAD (ε-NAD) substrate, final concentration 100 µM, in a final volume of 0.1 ml buffered with 50 mM HEPES, 0.05% BRIJ, pH = 6.0 containing 100 ng/ml recombinant CD38 (R&D Systems, H7006). Cleavage of ε-NAD, which causes a 10-fold fluorescence enhancement, was continuously followed at 37°C in a BMG Polarstar spectrofluorometer at an emission wavelength of 410 nm and an excitation of 300 nm, reaction time was 30 min. NADase activity was expressed as Δ relative fluorescence/min. The rate of enzyme reactions were compared in the presence and absence of inhibitor molecule, the IC50 values were calculated with Biostat Speed program.

IC50	Structure (SMILES)
30 nM	O=C1N/C(=C\c2ccncc2)C(=O)N1c1ccccc1 [Compound 1, 3-Phenyl-5-[1-pyridin-4-yl-meth-(Z)-ylidene]-imidazolidine-2,4-dione.HCl salt]
50 nM	Cc1cccc(N2C(=O)N/C(=C\c3ccncc3)C2=O)c1 [Compound 3, 5-[1-Pyridin-4-yl-meth-(Z)-ylidene]-3-m-tolyl-imidazolidine-2,4-dione]
60 nM	CCc1ccc(N2C(=O)N/C(=C\c3ccncc3)C2=O)cc1 [Compound 4, 3-(4-Ethyl-phenyl)-5-[1-pyridin-4-yl-meth-(Z)-ylidene]-imidazolidine-2,4-dione]
50 nM	O=C1N/C(=C\c2ccncc2)C(=O)N1c1cccc(Cl)c1 [Compound 5, 3-(3-Chloro-phenyl)-5-[1-pyridin-4-yl-meth-(Z)-ylidene]-imidazolidine-2,4-dione HCl-salt]
50 nM	O=C1N/C(=C\c2ccncc2)C(=O)N1c1ccc(Cl)c(Cl)c1 [Compound 6, 3-(3,4-Dichloro-phenyl)-5-[1-pyridin-4-yl-meth-(Z)-ylidene]-imidazolidine-2,4-dione]
50 nM	O=C1N/C(=C\c2ccncc2)C(=O)N1Cc1ccccc1 [Compound 7, 3-Benzyl-5-[1-pyridin-4-yl-meth-(Z)-ylidene]-imidazolidine-2,4-dione]
70 nM	CSc1ccc(N2C(=O)N/C(=C\c3ccncc3)C2=O)cc1 [Compound 8, 3-(4-Methylsulfanyl-phenyl)-5-[1-pyridin-4-yl-meth-(Z)-ylidene]-imidazolidine-2,4-dione]
292 nM	O=C1N/C(=C\c2ccncc2)C(=O)N1C1CCCCC1 [Compound 9, 3-Cyclohexyl-5-[1-pyridin-4-yl-meth-(Z)-ylidene]-imidazolidine-2,4-dione]
30 nM	O=C1N/C(=C\c2ccncc2)C(=O)N1c1ccc(F)c(F)c1 [Compound 10, 3-(3,4-Difluoro-phenyl)-5-[1-pyridin-4-yl-meth-(Z)-ylidene]-imidazolidine-2,4-dione]
30 nM	N#Cc1ccc(N2C(=O)N/C(=C\c3ccncc3)C2=O)cc1 [Compound 11, 4-{2,5-Dioxo-4-[1-pyridin-4-yl-meth-(Z)-ylidene]-imidazolidin-1-yl} -benzonitrile]
16 nM	O=C1N/C(=C\c2ccncc2)C(=O)N1c1ccc(F)cc1 [Compound 12, 3-(4-Fluoro-phenyl)-5-[1-pyridin-4-yl-meth-(2)-ylidene]-imidazolidine-2,4-dione]
30 nM	CC(=O)c1cccc(N2C(=O)N/C(=C\c3ccncc3)C2=O)c1 [Compound 13, 3-(3-Acetyl-phenyl)-5-[1-pyridin-4-yl-meth-(Z)-ylidene]-imidazolidine-2,4-dione]
90 nM	CN(C)c1ccc(N2C(=O)N/C(=C\c3ccncc3)C2=O)cc1 [Compound 14, 3-(4-Dimethylamino-phenyl)-5-[1-pyridin-4-yl-meth-(Z)-ylidene]-imidazolidine-2,4-dione]
110 nM	O=C(O)c1ccc(N2C(=O)N/C(=C\c3ccncc3)C2=O)cc1 [Compound 15, 4-{2,5-Dioxo-4-[1-pyridin-4-yl-meth-(Z)-ylidene]-imidazolidin-l-yl}-benzoic acid]
77 nM	O=C1N/C(=C\c2ccncc2)C(=O)N1c1cccc(C(F)(F)F)c1 [Compound 16, 5-[1-Pyridin-4-yl-meth-(Z)-ylidene]-3-(3-triftuoromethyl-phenyl)-imidazolidine-2,4-dione]
55 nM	COc1ccc(N2C(=O)N/C(=C\c3ccncc3)C2=O)cc1 [Compound 17, 3-(4-Methoxy-phenyl)-5-[1-pyridin-4-yl-meth-(Z)-ylidene]-imidazolidine-2,4-dione]
60 nM	O=C1N/C(=C\c2ccncc2)C(=O)N1CCc1ccccc1 [Compound 18, 3-Phenethyl-5-[1-pyridin-4-yl-meth-(Z)-ylidene]-imidazolidine-2,4-dione]
30 nM	Cc1ccc(N2C(=O)N/C(=C\c3ccncc3)C2=O)cc1 [Compound 19, 5-[1-Pyndin-4-yl-meth-(Z)-ylidene]-3-p-totyl-imidazolidine-2,4-dione]
40 nM	CC(C)N1C(=O)N/C(=C\c2ccncc2)C1=O [Compound 21, 3-Isopropyl-5-[1-pyridin-4-yl-meth-(Z)-ylidene]-imidazolidine-2,4-dione]

IC50	Structure (SMILES)
55 nM	CCCCCCN1C(=O)N/C(=C\c2ccncc2)C1=O [Compound 22, 3-Hexyl-5-[1-pyridin-4-yl-meth-(Z)-ylidene]-imidazotidine-2,4-dione]
26 nM	CC(=O)c1ccc(N2C(=O)N/C(=C\c3ccncc3)C2=O)cc1 [Compound 23, 3-(4-Acetyl-phenyl)-5-[1-pyridin-4-yl-meth-(Z)-ylidene]-imidazolidine-2,4-dione]
60 nM	C[S+]([O-])c1ccc(N2C(=O)N/C(=C\c3ccncc3)C2=O)cc1 (centres unmarked) [Compound 25, 3-(4-Methanesulfinyl-phenyl)-5-[1-pyridin-4-yl-meth-(Z)-ylidene]-imidazolidine-2,4-dione]
22 nM	CS(=O)(=O)c1ccc(N2C(=O)N/C(=C\c3ccncc3)C2=O)cc1 [Compound 26, 3-(4-Methanesulfonyl-phenyl)-5-[1-pyridin-4-yl-meth-(Z)-ylidene]-imidazolidine-2,4-dione]
56 nM	O=C(O)c1cccc(N2C(=O)N/C(=C\c3ccncc3)C2=O)c1 [Compound 27, 3-{2,5-Dioxo-4-[1-pyridin-4-yl-meth-(Z)-ylidene]-imidazolidin-1-yl}-benzoic acid]
51 nM	O=C(c1ccc(N2C(=O)N/C(=C\c3ccncc3)C2=O)cc1)N1CCOCC1 [Compound 29, 3-[4-(Morpholine-4-carbonyl)-phenyl]-5-[1-pyridin-4-yl-meth-(Z)-ylidene]-imidazolidine-2,4-dione]
28 nM	O=C1N/C(=C\c2ccncc2)C(=O)N1c1ccc(OC(F)(F)F)cc1 [Compound 30, 5-[1-Pyridin-4-yl-meth-(Z)-ylidene]-3-(4-trifluoromethoxy-phenyl)-imidazolidine-2,4-dione]
43 nM	O=C1N/C(=C\c2ccncc2)C(=O)N1c1ccc(C(F)(F)F)cc1 [Compound 31, 5-[1-Pyridin-4-yl-meth-(Z)-ylidene]-3-(4-trifluoromethyl-phenyl)-imidazolidine-2,4-dione]
38 nM	O=C(O)Cc1ccc(N2C(=O)N/C(=C\c3ccncc3)C2=O)cc1 [Compound 32, (4-{2,5-Dioxo-4-[1-pyndin-4-yl-meth-(Z)-ylidene]-imidazolidin-1-yl}-phenyl)-acetic acid]
65 nM	O=C(NCCN1CCOCC1)c1cccc(N2C(=O)N/C(=C\c3ccncc3)C2=O)c1 [Compound 34, 3-{2,5-Dioxo-4-[1-pyridin-4-yl-meth-(Z)-ylidene]-imidazolidin-1-yl}-N-(2-morpholin-4-yl-ethyl)-benzamide]
100 nM	CC(C)(C)c1ccc(N2C(=O)N/C(=C\c3ccncc3)C2=O)cc1 [Compound 35, 3-(4-tert-Butyl-phenyl)-5-[1-pyridin-4-yl-meth-(Z)-ylidene]-imidazolidine-2,4-dione]
250 nM	CCOc1ccc(CCN2C(=O)N/C(=C\c3ccncc3)C2=O)cc1OCC [Compound 36, 3-[2-(3,4-Diethoxy-phenyl)-ethyl]-5-[1-pyridin-4-yl-meth-(Z)-ylidene]-imidazolidine-2,4-dione]
290 nM	O=C1N/C(=C\c2ccncc2)C(=O)N1CCN1CCCC1 [Compound 37, 5-[1-Pyridin-4-yl-meth-(Z)-ylidene]-3-(2-pyrrolidin-1-yl-ethyl)-imidazolidine-2,4-dione]
400 nM	O=C1N/C(=C\c2ccncc2)C(=O)N1C12CC3CC(CC(C3)C1)C2 [Compound 38, 3-Adamantan-1-yl-5-[1-pyridin-4-yl-meth-(Z)-ylidene]-imidazolidine-2,4-dione]
61 nM	O=C1N/C(=C\c2ccncc2)C(=O)N1c1cccnc1 [Compound 39, 3-Pyridin-3-yl-5-[1-pyridin-4-yl-meth-(Z)-ylidene]-imidazolidine-2,4-dione]
214 nM	O=C1N/C(=C\c2ccncc2)C(=O)N1C1CCC(O)CC1 (centres unmarked) [Compound 40, 3-(4-Hydroxy-cyclohexyl)-5-[1-pyridin-4-yl-meth-(Z)-ylidene]-imidazolidine-2,4-dione]
80 nM	CCCN1C(=O)N/C(=C\c2ccncc2)C1=O [Compound 41, 3-Propyl-5-[1-pyridin-4-yl-meth-(Z)-ylidene]-imidazolidine-2,4-dione]
868 nM	CCC(C)N1C(=O)N/C(=C\c2ccncc2)C1=O (centres unmarked) [Compound 42, 3-sec-Butyl-5-[1-pyridin-4-yl-meth-(Z)-ylidene]-imidazolidine-2,4-dione]

Structure (SMILES)	IC50
O=C1N/C(=C\c2ccncc2)C(=O)N1c1ccc(Br)cc1 [Compound 20, 3-(4-Bromo-phenyl)-5-[1-pyridin-4-yl-meth-(Z)-ylidene]-imidazolidine-2,4-dione]	20 nM
